Measurements: PMC9569995, “Study of Biological Activities and ADMET-Related Properties of Salicylanilide-Based Peptidomimetics” (International Journal of Molecular Sciences, 2022)
Where two headings read alike, the source gives them in different places.

Columns and labels:
[1] = system: Staphylococcus aureus ATCC 29213; assay: In vitro antibacterial evaluation, MIC by microtitration broth method; settings: ATCC29213
[2] = system: Mycobacterium tuberculosis H37Ra/ATCC 25177; assay: In vitro antimycobacterial evaluation, MIC (alamarBlue); settings: MT
[3] = system: methicillin-resistant S. aureus 63718; assay: In vitro antibacterial evaluation, MIC by microtitration broth method; settings: Staphylococcus aureus
[4] = system: human monocytic leukemia cell line THP-1; assay: In vitro cell viability analysis (CCK-8); assay type: cell-based; settings: ± SD, n = 6, medium with 10% FBS, 24 h
Method: Human monocytic leukemia THP-1 cells obtained from the European Collection of Cell Cultures (ECACC, Salisbury, UK) were used for in vitro antiproliferative assays. They were routinely cultured in Roswell Park Memorial Institute RPMI 1640 medium supplemented with 10% fetal bovine serum (FBS), 2% L-glutamine, 1% penicillin, and streptomycin (all from Sigma-Aldrich) at 37 °C with 5% CO2. The cells were incubated in a complete medium (i.e., containing FBS) with test compounds at 37 °C with 5% CO2 for 24 h, similarly as we described previously. The effect of the test compounds dissolved in DMSO on cell viability was determined using a Cell Counting Kit-8 (CCK-8; Sigma) according to the manufacturer’s instructions.

M. smegmatis ATCC 700084 = assay: In vitro antimycobacterial evaluation, MIC (broth dilution micro-method); assay type: cell-based, Mycobacterium smegmatis; settings: Mycolicibacterium smegmatis
Method: For M. smegmatis, the broth dilution micro-method in Middlebrook 7H9 medium (Difco) supplemented with ADC Enrichment (Difco) was used. […] Bacterial inocula were prepared by transferring colonies from culture to sterile water. The cell density was adjusted to 0.5 McFarland units using a densitometer (Densi-La-Meter, LIAP, Riga, Latvia). The final inoculum was made by 1:1000 dilution of the suspension with sterile water. Drug-free controls, sterility controls, and controls consisting of medium and DMSO alone were included. The determination of results was performed visually after three days of static incubation in the darkness at 37 °C in an aerobic atmosphere.

[5] = Lipophilicity determination by HPLC; assay type: physicochemical; settings: for log D6.5: HPLC C18, MeOH 72%/acetate-buffered saline pH 6.5 28%; for log D7.4: HPLC C18, MeOH 72%/acetate-buffered saline pH 7.4 28%; for log k: logarithm of capacity factor, HPLC C18, MeOH 72%/H2O 28%
Source text: . A chromatographic column Symmetry® C18 5 μm, 4.6 × 250 mm, Part No. W21751W016 (Waters Corp, Milford, MA, USA) was used. The HPLC separation process was monitored by ChemStation for LC 3D systems (Agilent Technologies). Isocratic elution by a mixture of MeOH (HPLC grade, 72%) and H2O-HPLC Mili-Q grade (28%) as a mobile phase was used for the determination of capacity factor k. Isocratic elution by a mixture of MeOH (HPLC grade, 72%) and acetate-buffered saline (pH 7.4 and pH 6.5) (28%) as a mobile phase was used for the determination of distribution coefficient expressed as D7.4 and D6.5. The total flow of the column was 1.0 mL/min, injection was 20 μL, column temperature was 40 °C, and sample temperature was 10 °C. The detection wavelength of 210 nm was chosen. A KI methanolic solution was used for the determination of the dead times (tD). Retention times (tR) were measured in minutes. The capacity factors k were calculated according to the formula k = (tR − tD)/tD, where tR is the retention time of the solute, and tD is the dead time obtained using an unretained analyte. The distribution coefficients DpH were calculated according to the formula DpH = (tR − tD)/tD. Each experiment was repeated three times.

[6] = system: methicillin-resistant S. aureus SA 3202; assay: In vitro antibacterial evaluation, MIC by microtitration broth method; settings: Staphylococcus aureus
[7] = system: Enterococcus faecalis ATCC 29212; assay: as above; settings: ATCC29212
[8] = system: methicillin-resistant S. aureus SA 630; assay: as above; settings: Staphylococcus aureus
[9] = system: vancomycin-resistant E. faecalis VRE 342B; assay: as above; settings: Enterococcus faecalis
[10] = system: vancomycin-resistant E. faecalis VRE 725B; assay: as above; settings: Enterococcus faecalis
[11] = system: vancomycin-resistant E. faecalis VRE 368; assay: as above; settings: Enterococcus faecalis

SMILES	MIC [1]	MIC ([2]; Table S2)	MIC [3]	IC50 [4]	MIC (M. smegmatis ATCC 700084; ATCC700084)	log D6.5 [5]	log D7.4 [5]	averaged lipophilicity value of log k/log D6.5/log D7.4 ([5]; average of the three experimental descriptors)	log k [5]	MIC [6]	MIC [7]	MIC [8]	MIC [9]	MIC [10]	MIC [11]	MIC ([2]; 14 days, 37 °C)	MIC (M. smegmatis ATCC 700084; ATCC700084, 72 h, MS, three days, 37 °C, read-out: MIC)
C[C@H](NC(=O)c1cc(Cl)ccc1OCc1ccccc1)C(=O)Nc1ccc(C(F)(F)F)cc1 [2a, 2-(Benzyloxy)-5-chloro-N-[(2S)-1-oxo-1-{[4-(trifluoromethyl)phenyl]amino}propan-2-yl]benzamide]	> 256 µg/mL	> 256 µg/mL	> 256 µg/mL	> 10 µM	> 256 µg/mL	1.489	1.474	1.47 ± 0.02	1.450	> 256 µg/mL	> 256 µg/mL	> 256 µg/mL	> 256 µg/mL	> 256 µg/mL	> 256 µg/mL		
CCC[C@H](NC(=O)c1cc(Cl)ccc1OCc1ccccc1)C(=O)Nc1ccc(C(F)(F)F)cc1 [2b, 2-(Benzyloxy)-5-chloro-N-[(2S)-1-oxo-1-{[4-(trifluoromethyl)phenyl]amino}pentan-2-yl]benzamide]	> 256 µg/mL	> 256 µg/mL	> 256 µg/mL	> 10 µM	> 256 µg/mL	1.742	1.731		1.709	> 256 µg/mL	> 256 µg/mL	> 256 µg/mL	> 256 µg/mL	> 256 µg/mL	> 256 µg/mL		
CC(C)[C@H](NC(=O)c1cc(Cl)ccc1OCc1ccccc1)C(=O)Nc1ccc(C(F)(F)F)cc1 [2c, 2-(Benzyloxy)-5-chloro-N-[(2S)-3-methyl-1-oxo-1-{[4-(trifluoromethyl)phenyl]amino}butan-2-yl]benzamide]	> 256 µg/mL	> 256 µg/mL	> 256 µg/mL	> 10 µM	> 256 µg/mL	1.711	1.697		1.683	> 256 µg/mL	> 256 µg/mL	> 256 µg/mL	> 256 µg/mL	> 256 µg/mL	> 256 µg/mL		
CCCC[C@H](NC(=O)c1cc(Cl)ccc1OCc1ccccc1)C(=O)Nc1ccc(C(F)(F)F)cc1 [2d, 2-(Benzyloxy)-5-chloro-N-[(2S)-1-oxo-1-{[4-(trifluoromethyl)phenyl]amino}hexan-2-yl]benzamide]	> 256 µg/mL	> 256 µg/mL	> 256 µg/mL	> 10 µM	> 256 µg/mL	1.954	1.902		1.898	> 256 µg/mL	> 256 µg/mL	> 256 µg/mL	> 256 µg/mL	> 256 µg/mL	> 256 µg/mL		
CSCC[C@H](NC(=O)c1cc(Cl)ccc1OCc1ccccc1)C(=O)Nc1ccc(C(F)(F)F)cc1 [2e, 2-(Benzyloxy)-5-chloro-N-[(2S)-4-(methylsulfanyl)-1-oxo-1-{[4-(trifluoromethyl)phenyl]amino}butan-2-yl]benzamide]	> 256 µg/mL	> 256 µg/mL	> 256 µg/mL	> 10 µM	> 256 µg/mL	1.714	1.689		1.668	> 256 µg/mL	> 256 µg/mL	> 256 µg/mL	> 256 µg/mL	> 256 µg/mL	> 256 µg/mL		
CC(C)C[C@H](NC(=O)c1cc(Cl)ccc1OCc1ccccc1)C(=O)Nc1ccc(C(F)(F)F)cc1 [2f]	> 256 µg/mL	> 256 µg/mL	> 256 µg/mL	> 10 µM	> 256 µg/mL	2.014	1.995		1.975	> 256 µg/mL	> 256 µg/mL	> 256 µg/mL	> 256 µg/mL	> 256 µg/mL	> 256 µg/mL		
NNC(=O)c1ccncc1 [INH, isoniazid, reference compound]																36.6 – µM	117 µM
